In patent US20260265189A1, “NOVEL COMPOUND, AND PHARMACEUTICAL COMPOSITION COMPRISING SAME AS ACTIVE INGREDIENT” (SAPIENSBIO INC., priority 2022, published 2026):

System: α-SMA expression in MRC5 cells
Assay: inhibition of α-SMA expression in MRC5 cells, image screening method
Assay type: cell-based
Conditions: Homo sapiens; MRC5, compound 10 μM, TGF-β1 5 ng/mL, 72 hours, relative to TGF-β1 alone; read-out: Inhibitory activity (α-SMA expression inhibition)
Method: The ability of the compounds according to the present invention to inhibit the expression of α-SMA, which is a biomarker for pulmonary fibrosis, was evaluated by an image screening method. MRC5 cells were treated with the compound (10 μM) or DMSO under the condition of TGF-31 (5 ng/mL). 72 hours later, the cells were fixed with a 4% formaldehyde solution, treated with a 0.1% Triton-x100 solution, and treated with a 1% BSA solution to mask non-specific binding caused by antibodies. Anti-α-SMA-FITC (Sigma Aldrich) and anti-GAPDH (Cell Signaling Technology) were used as primary antibodies, and anti-mouse-TRITC was used as a secondary antibody. Imaging and analysis of the results were performed using Cytation5_Gen5_Version 3.12.08 (Bio Tek). Relative to the α-SMA expression level when TGF-31 was treated alone, the α-SMA expression level when both the compound and TGF-31 were treated was calculated as the ability of α-SMA expression inhibition of the corresponding compound.

Compound	inhibition at 10 µM [%]
CC(C)CN1CCC(CNC(=O)N2CCN(c3ccc(F)cc3)c3cc(F)ccc32)CC1 [Compound 35, 6-fluoro-4-(4-fluorophenyl)-N-((1-isobutylpiperidin-4-yl)methyl)-3,4-dihydroquinoxaline-1(2H)-carboxamide]	≥ 70
CC(C)N1CCC(CNC(=O)N2CCN(c3ccc(F)cc3)c3cc(F)ccc32)CC1 [Compound 36, 6-fluoro-4-(4-fluorophenyl)-N-((1-isopropylpiperidin-4-yl)methyl)-3,4-dihydroquinoxaline-1(2H)-carboxamide]	50 to 70
O=C(NCc1c[nH]cn1)N1CCN(c2ccc(F)cc2)c2cc(F)ccc21 [Compound 37, N-((1H-imidazol-4-)methyl)-6-fluoro-4-(4-fluorophenyl)-3,4-dihydroquinoxaline-1(2H)-carboxamide]	30 to 50
COC1CCN(C(=O)N2CCN(c3ccc(F)cc3)c3cc(F)ccc32)C1 (stereo not drawn) [Compound 40, (6-fluoro-4-(4-fluorophenyl)-3,4-dihydroquinoxalin-1(2H)-yl)(3-methoxypyrrolidin-1-yl)methanone]	10 to 30
O=C(NC1CNC1)N1CCN(c2ccc(F)cc2)c2cc(F)ccc21 [Compound 41, N-(azetidin-3-yl)-6-fluoro-4-(4-fluorophenyl)-3,4-dihydroquinoxaline-1(2H)-carboxamide]	30 to 50
CC(C)CN1CC(NC(=O)N2CCN(c3ccc(F)cc3)c3cc(F)ccc32)C1 [Compound 43, 6-fluoro-4-(4-fluorophenyl)-N-(1-isobutylazetidin-3-yl)-3,4-dihydroquinoxaline-1(2H)-carboxamide]	≥ 70
CN1CC(CNC(=O)N2CCN(c3ccc(F)cc3)c3cc(F)ccc32)C1 [Compound 45, 6-fluoro-4-(4-fluorophenyl)-N-((1-methylazetidin-3-yl)methyl)-3,4-dihydroquinoxaline-1(2H)-carboxamide]	50 to 70
CC(C)N1CC(CNC(=O)N2CCN(c3ccc(F)cc3)c3cc(F)ccc32)C1 [Compound 46, 6-fluoro-4-(4-fluorophenyl)-N-((1-isopropylazetidin-3-yl)methyl)-3,4-dihydroquinoxaline-1(2H)-carboxamide]	30 to 50
CC(C)CN1CC(CNC(=O)N2CCN(c3ccc(F)cc3)c3cc(F)ccc32)C1 [Compound 47, 6-fluoro-4-(4-fluorophenyl)-N-((1-isobutylazetidin-3-yl)methyl)-3,4-dihydroquinoxaline-1(2H)-carboxamide]	50 to 70
O=C(NCC1CCOC1)N1CCN(c2ccc(F)cc2)c2cc(F)ccc21 (stereo not drawn) [Compound 48, 6-fluoro-4-(4-fluorophenyl)-N-((tetrahydrofuran-3-yl)methyl)-3,4-dihydroquinoxaline-1(2H)-carboxamide]	10 to 30
O=C(N[C@H]1CCNC1)N1CCN(c2ccc(F)cc2)c2ccccc21 [Compound 49, (S)-4-(4-fluorophenyl)-N-(pyrrolidin-3-yl)-3,4-dihydroquinoxaline-1(2H)-carboxamide]	10 to 30
O=C(NC1CCNCC1)N1CCN(c2ccc(F)cc2)c2ccccc21 [Compound 50, 4-(4-fluorophenyl)-N-(piperidin-4-yl)-3,4-dihydroquinoxaline-1(2H)-carboxamide]	30 to 50
O=C(NCC1CCOCC1)N1CCN(c2ccc(F)cc2)c2ccccc21 [Compound 52, 4-(4-fluorophenyl)-N-((tetrahydro-2H-pyran-4-yl)methyl)-3,4-dihydroquinoxaline-1(2H)-carboxamide]	10 to 30
O=C(NC[C@H]1CCNC1)N1CCN(c2ccc(F)cc2)c2ccccc21 [Compound 53, (S)-4-(4-fluorophenyl)-N-(pyrrolidin-3-ylmethyl)-3,4-dihydroquinoxaline-1(2H)-carboxamide]	10 to 30
CN1CC[C@H](CNC(=O)N2CCN(c3ccc(F)cc3)c3ccccc32)C1 [Compound 54, (R)-4-(4-fluorophenyl)-N-((1-methylpyrrolidin-3-yl)methyl)-3,4-dihydroquinoxaline-1(2H)-carboxamide]	30 to 50
CC(C)N1CC[C@H](CNC(=O)N2CCN(c3ccc(F)cc3)c3ccccc32)C1 [Compound 55, (R)-4-(4-fluorophenyl)-N-((1-isopropylpyrrolidin-3-yl)methyl)-3,4-dihydroquinoxaline-1(2H)-carboxamide]	30 to 50
CC(C)CN1CC[C@H](CNC(=O)N2CCN(c3ccc(F)cc3)c3ccccc32)C1 [Compound 56, (R)-4-(4-fluorophenyl)-N-((1-isobutylpyrrolidin-3-yl)methyl)-3,4-dihydroquinoxaline-1(2H)-carboxamide]	30 to 50
O=C(NC[C@H]1CCCN1)N1CCN(c2ccc(F)cc2)c2ccccc21 [Compound 57, (R)-4-(4-fluorophenyl)-N-(pyrrolidin-2-ylmethyl)-3,4-dihydroquinoxaline-1(2H)-carboxamide]	30 to 50

Compound	inhibition at 10 µM [%]
CN1CC[C@@H](CNC(=O)N2CCN(c3ccc(F)cc3)c3ccccc32)C1 [Compound 58, (S)-4-(4-fluorophenyl)-N-((1-methylpyrrolidin-3-yl)methyl)-3,4-dihydroquinoxaline-1(2H)-carboxamide]	30 to 50
CC(C)N1CC[C@@H](CNC(=O)N2CCN(c3ccc(F)cc3)c3ccccc32)C1 [Compound 59, (S)-4-(4-fluorophenyl)-N-((1-isopropylpyrrolidin-3-yl)methyl)-3,4-dihydroquinoxaline-1(2H)-carboxamide]	30 to 50
CC(C)CN1CC[C@@H](CNC(=O)N2CCN(c3ccc(F)cc3)c3ccccc32)C1 [Compound 60, (S)-4-(4-fluorophenyl)-N-((1-isobutylpyrrolidin-3-yl)methyl)-3,4-dihydroquinoxaline-1(2H)-carboxamide]	50 to 70
CC(C)CN1CC(CNC(=O)N2CCN(c3ccc(F)cc3)c3ccccc32)C1 [Compound 61, 4-(4-fluorophenyl)-N-((1-isobutylazetidin-3-yl)methyl)-3,4-dihydroquinoxaline-1(2H)-carboxamide]	50 to 70
O=C(NCC1CCNCC1)N1CCN(c2ccc(F)cc2)c2ccccc21 [Compound 62, 4-(4-fluorophenyl)-N-(piperidin-4-ylmethyl)-3,4-dihydroquinoxaline-1(2H)-carboxamide]	30 to 50
CC(C)N1CCC(CNC(=O)N2CCN(c3ccc(F)cc3)c3ccccc32)CC1 [Compound 63, 4-(4-fluorophenyl)-N-((1-isopropylpiperidin-4-yl)methyl)-3,4-dihydroquinoxaline-1(2H)-carboxamide]	30 to 50
CC(C)CN1CCC(CNC(=O)N2CCN(c3ccc(F)cc3)c3ccccc32)CC1 [Compound 64, 4-(4-fluorophenyl)-N-((1-isobutylpiperidin-4-yl)methyl)-3,4-dihydroquinoxaline-1(2H)-carboxamide]	≥ 70
O=C(N[C@@H]1CCNC1)N1CCN(c2ccccc2)c2cc(F)ccc21 [Compound 65, (R)-6-fluoro-4-phenyl-N-(pyrrolidin-3-yl)-3,4-dihydroquinoxaline-1(2H)-carboxamide]	30 to 50
O=C(N1CCCCC1)N1CCN(c2ccccc2Cl)c2ccccc21 [Compound 66, (4-(2-chlorophenyl)-3,4-dihydroquinoxalin-1(2H)-yl)(piperidin-1-yl)methanone]	50 to 70
O=C(N1CCCC1)N1CCN(c2ccccc2Cl)c2ccccc21 [Compound 67]	30 to 50
CN1CCN(C(=O)N2CCN(c3ccccc3Cl)c3ccccc32)CC1 [Compound 68, (4-(2-chlorophenyl)-3,4-dihydroquinoxalin-1(2H)-yl)(4-methylpiperazin-1-yl)methanone]	30 to 50
CC(C)N1CC[C@H](NC(=O)N2CCN(c3ccccn3)c3ccccc32)C1 [Compound 69, (S)-N-(1-isopropylpyrrolidin-3-yl)-4-(pyridin-2-yl)-3,4-dihydroquinoxaline-1(2H)-carboxamide]	10 to 30
CC(=O)N1CC[C@@H](NC(=O)N2CCN(c3ccccn3)c3ccccc32)C1 [Compound 70, (R)-N-(1-acetylpyrrolidin-3-yl)-4-(pyridin-2-yl)-3,4-dihydroquinoxaline-1(2H)-carboxamide]	10 to 30
O=C(NC[C@H]1CCNC1)N1CCN(c2ccccn2)c2ccccc21 [Compound 71, (S)-4-(pyridin-2-yl)-N-(pyrrolidin-3-ylmethyl)-3,4-dihydroquinoxaline-1(2H)-carboxamide]	30 to 50
O=C(NC[C@H]1CCCN1)N1CCN(c2ccccn2)c2ccccc21 [Compound 72, (R)-4-(pyridin-2-yl)-N-(pyrrolidin-2-ylmethyl)-3,4-dihydroquinoxaline-1(2H)-carboxamide]	30 to 50
O=C(N[C@@H]1CCOC1)N1CCN(c2cccnc2)c2ccccc21 [Compound 73, (R)-4-(pyridin-3-yl)-N-(tetrahydrofuran-3-yl)-3,4-dihydroquinoxaline-1(2H)-carboxamide]	30 to 50
O=C(NCC1CC1)N1CCN(c2ccncc2)c2ccccc21 [Compound 74, N-(cyclopropylmethyl)-4-(pyridin-4-yl)-3,4-dihydroquinoxaline-1(2H)-carboxamide]	30 to 50
N#Cc1ccc(N2CCN(C(=O)NC[C@H]3CCNC3)c3ccccc32)cc1 [Compound 79, (S)-4-(4-cyanophenyl)-N-(pyrrolidin-3-ylmethyl)-3,4-dihydroquinoxaline-1(2H)-carboxamide]	10 to 30
